According to patent US12528814B2, “Bifunctional degraders of interleukin-1 receptor-associated kinases and therapeutic use thereof” (NURIX THERAPEUTICS, INC., priority 2020, dated 2026):
Where two headings read alike, the source gives them in different places.

Key:
IRAK4 [1] = molecular target: T1, IRAK4 (Homo sapiens (Human), UniProt Q9NWZ3); experiment: IRAK4 Biochemical HTRF Kinase Assay; settings: read-out: IRAK4 HTRF biochemical: IC50
Procedure, shortened: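 HTRF KinEASE STK S1 format measuring IRAK4 phosphorylation of biotinylated peptide; reaction solution of 5 μM STK-S1, 10 mM ATP, 10 mM MgCl2 added (stock, to 10 μl final), 90 min at ambient temperature, detection 60 min. IC50 from sixteen-point duplicate curves by non-linear regression.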
Target sequence in this assay (Q9NWZ3 whole entry, species assumed): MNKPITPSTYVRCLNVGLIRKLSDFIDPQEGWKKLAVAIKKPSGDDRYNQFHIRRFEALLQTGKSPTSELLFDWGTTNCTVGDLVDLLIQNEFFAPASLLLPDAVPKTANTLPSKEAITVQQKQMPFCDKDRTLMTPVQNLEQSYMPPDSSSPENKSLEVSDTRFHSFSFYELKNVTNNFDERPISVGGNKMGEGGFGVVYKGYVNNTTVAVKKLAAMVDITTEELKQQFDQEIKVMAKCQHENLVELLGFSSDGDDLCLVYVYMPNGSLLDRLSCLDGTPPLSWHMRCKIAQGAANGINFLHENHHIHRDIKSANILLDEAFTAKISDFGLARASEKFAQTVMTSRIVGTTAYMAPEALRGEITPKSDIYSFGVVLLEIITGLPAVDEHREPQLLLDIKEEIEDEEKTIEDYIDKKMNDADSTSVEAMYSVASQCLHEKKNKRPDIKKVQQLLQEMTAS

IRAK4 [2] = molecular target: T1, IRAK4; experiment: IRAK4 Degradation HiBiT Assay; settings: HiBiT-tagged Jurkat cells, 4 hrs; for Dmax: Jurkat; for DC50: read-out: Cellular IRAK4 HiBiT: DC50
Target sequence in this assay (Q9NWZ3 whole entry): as the sequence (Q9NWZ3 whole entry, species assumed) above
Protocol: Compound dilution series (11-point, 3.16-fold dilutions in DMSO, columns 1-11 and 12-22) at 500× the final required concentrations were prepared in Labcyte LDV 384-well plates (cat. no. LP-0200) using a Labcyte Echo 550 Liquid Handler. The 500× solutions ranged from 5 mM to 0.5 μM (final assay concentration range 10 μM to 0.1 nM). Using the Echo, the 500× solutions were stamped into white, 384-well assay plates (Corning, cat. no. 3570) at 60 nL/well. […] C-terminal HiBiT-tagged Jurkat cells (polyclonal cell line or clone 8D5) were plated at 1×10^6 cells/mL, 30 μL/well (3×10^4 cells/well) in complete RPMI (10% FBS, 1% L-glutamine). Cells were incubated for 4 hrs at 32° C./6% CO2.
Following incubation, 30 uL of complete Nano-Glo HiBiT Lytic Detection Reagent (Nano-Glo HiBiT Lytic Buffer with 1:50 Nano-Glo HiBiT Lytic Substrate and 1:100 LgBiT Protein; Promega cat. no. N3040) was added. Cells were further incubated for 10 min at room temperature (RT). Luminescence units (LU) were read on an EnVision plate reader (Perkin Elmer, 0.1 sec per well). Percent IRAK4 remaining per sample was calculated as follows:
Using Graphpad Prism, % IRAK4 remaining values were plotted as a function of compound concentration.

[3] = read-out: Cellular IRAK4 HiBiT: Dmax, Table 4
[4] = read-out: Cellular IRAK4 HiBiT: Dmax, Table 5, multiple runs

Row | IC50 (IRAK4 [1]; Table 4) [nM] | IC50 (IRAK4 [1]; Table 5, multiple runs) [nM] | Dmax (IRAK4 [2]; [3]) [%] | Dmax (IRAK4 [2]; [4]) [%] | DC50 (IRAK4 [2]; Table 4) [nM] | DC50 (IRAK4 [2]; Table 5, multiple runs) [nM] | Structure (SMILES)
1 | – | 0.5 | – | 120 | – | 159 | CNc1cc(-c2ccc3cc(C#N)cnn23)ncc1-c1nnc(N2CC3(CCN(CC4CCN(c5ccc(C(=O)NC6CCC(=O)NC6=O)cc5)CC4)CC3)C2)s1 (stereo not shown) [Example 182, 4-(4-((2-(5-(6-(3-cyanopyrrolo[1,2-b]pyridazin-7-yl)-4-(methylamino)pyridin-3-yl)-1,3,4-thiadiazol-2-yl)-2,7-diazaspiro[3.5]nonan-7-yl)methyl)piperidin-1-yl)-N-(2,6-dioxopiperidin-3-yl)benzamide]
2 | – | 1.5 | – | 28 | – | 2520 | CNc1cc(-c2ccc3cc(C#N)cnn23)ncc1-c1nnc([C@H]2CC[C@H](NC(=O)CCC(=O)N[C@H](C(=O)N3C[C@H](O)C[C@H]3C(=O)N[C@@H](C)c3ccc(Br)cc3)C(C)(C)C)CC2)s1 [Example 172, N1—((S)-1-((2S,4R)-2-(((S)-1-(4-bromophenyl)ethyl)carbamoyl)-4-hydroxypyrrolidin-1-yl)-3,3-dimethyl-1-oxobutan-2-yl)-N4-((1r,4S)-4-(5-(6-(3-cyanopyrrolo[1,2-b]pyridazin-7-yl)-4-(methylamino)pyridin-3-yl)-1,3,4-thiadiazol-2-yl)cyclohexyl)succinamide]
3 | – | 1.1 | – | 59 | – | 15.8 | CNc1cc(-c2ccc3cc(C#N)cnn23)ncc1-c1nnc(C23CCC(NC(=O)CCOCCNc4cccc5c4C(=O)N(C4CCC(=O)NC4=O)C5=O)(CC2)CC3)s1 (stereo not shown) [Example 111, N-(4-(5-(6-(3-cyanopyrrolo[1,2-b]pyridazin-7-yl)-4-(methylamino)pyridin-3-yl)-1,3,4-thiadiazol-2-yl)bicyclo[2.2.2]octan-1-yl)-3-(2-((2-(2,6-dioxopiperidin-3-yl)-1,3-dioxoisoindolin-4-yl)amino)ethoxy)propenamide]
4 | – | 0.9 | – | 95 | – | 88.3 | CNc1cc(-c2ccc3cc(C#N)cnn23)ncc1-c1nnc(N2CCN(CCC3CCN(c4ccc5c(c4)C(=O)N(C4CCC(=O)NC4=O)C5=O)CC3)CC2)s1 (stereo not shown) [Example 187, 7-(5-(5-(4-(2-(1-(2-(2,6-dioxopiperidin-3-yl)-1,3-dioxoisoindolin-5-yl)piperidin-4-yl)ethyl)piperazin-1-yl)-1,3,4-thiadiazol-2-yl)-4-(methylamino)pyridin-2-yl)pyrrolo[1,2-b]pyridazine-3-carbonitrile]
5 | – | 1.4 | – | – | – | > 9980 | CNc1cc(-c2ccc3cc(C#N)cnn23)ncc1-c1nnc([C@H]2CC[C@H](NC(=O)CN3CCN(c4ccc5c(c4)C(=O)N(C4CCC(=O)N(C)C4=O)C5=O)CC3)CC2)s1 (stereo partly shown) [Example 148, N-((1r,4r)-4-(5-(6-(3-cyanopyrrolo[1,2-b]pyridazin-7-yl)-4-(methylamino)pyridin-3-yl)-1,3,4-thiadiazol-2-yl)cyclohexyl)-2-(4-(2-(1-methyl-2,6-dioxopiperidin-3-yl)-1,3-dioxoisoindolin-5-yl)piperazin-1-yl)acetamide]
6 | – | 1.1 | – | 97 | – | 85.8 | CNc1cc(-c2ccc3cc(C#N)cnn23)ncc1-c1nnc(N2CCN(C(=O)C[C@H](NC(=O)[C@@H]3C[C@@H](O)CN3C(=O)[C@@H](NC(=O)C3(F)CC3)C(C)(C)C)c3ccc(-c4scnc4C)cc3)CC2)s1 [Example 160, (2S,4R)—N—((S)-3-(4-(5-(6-(3-cyanopyrrolo[1,2-b]pyridazin-7-yl)-4-(methylamino)pyridin-3-yl)-1,3,4-thiadiazol-2-yl)piperazin-1-yl)-1-(4-(4-methylthiazol-5-yl)phenyl)-3-oxopropyl)-1-((S)-2-(1-fluorocyclopropane-1-carboxamido)-3,3-dimethylbutanoyl)-4-hydroxypyrrolidine-2-carboxamide]

Second part, the molecule before the results:

Row | Structure (SMILES) | IC50 (IRAK4 [1]; Table 4) [nM] | IC50 (IRAK4 [1]; Table 5, multiple runs) [nM] | Dmax (IRAK4 [2]; [3]) [%] | Dmax (IRAK4 [2]; [4]) [%] | DC50 (IRAK4 [2]; Table 4) [nM] | DC50 (IRAK4 [2]; Table 5, multiple runs) [nM]
7 | CC(C)Nc1cc(-c2ccc3cc(C#N)cnn23)ncc1-c1nnc(N2CCN(C3CCN(C[C@H]4CCN(c5ccc6c(c5)C(=O)N(C5CCC(=O)NC5=O)C6=O)C4)CC3)CC2)s1 (stereo partly drawn) [Example 17, 7-(5-(5-(4-(1-(((3R)-1-(2-(2,6-dioxopiperidin-3-yl)-1,3-dioxoisoindolin-5-yl)pyrrolidin-3-yl)methyl)piperidin-4-yl)piperazin-1-yl)-1,3,4-thiadiazol-2-yl)-4-(isopropylamino)pyridin-2-yl)pyrrolo[1,2-b]pyridazine-3-carbonitrile] | 1.4 | 1.4 | 69 | 77 | 139 | 168
8 | CN[C@@H](C)C(=O)N[C@H](C(=O)N1CCC[C@H]1c1nc(C(=O)c2cccc(OCCOCCC(=O)N3CCN(c4nnc(-c5cnc(-c6ccc7cc(C#N)cnn67)cc5NC(C)C)s4)CC3)c2)cs1)C1CCCCC1 [Example 50, (S)—N—((S)-2-((S)-2-(4-(3-(2-(3-(4-(5-(6-(3-cyanopyrrolo[1,2-b]pyridazin-7-yl)-4-(isopropylamino)pyridin-3-yl)-1,3,4-thiadiazol-2-yl)piperazin-1-yl)-3-oxopropoxy)ethoxy)benzoyl)thiazol-2-yl)pyrrolidin-1-yl)-1-cyclohexyl-2-oxoethyl)-2-(methylamino)propanamide] | 3.1 | 3.2 | 67 | 67 | 197 | 197
9 | CNc1cc(-c2ccc3cc(C#N)cnn23)ncc1-c1nnc([C@H]2CC[C@H](NC(=O)CCOCCOCCOCCNc3cccc4c3C(=O)N(C3CCC(=O)NC3=O)C4=O)CC2)s1 (stereo partly shown) [Example 70, N-((1r,4r)-4-(5-(6-(3-cyanopyrrolo[1,2-b]pyridazin-7-yl)-4-(methylamino)pyridin-3-yl)-1,3,4-thiadiazol-2-yl)cyclohexyl)-3-(2-(2-(2-((2-(2,6-dioxopiperidin-3-yl)-1,3-dioxoisoindolin-4-yl)amino)ethoxy)ethoxy)ethoxy)propenamide] | 0.86 | 0.8 | 68 | 100 | 6.3 | 10.8
10 | CC(C)Nc1cc(-c2ccc3cc(C#N)cnn23)ncc1-c1nnc(N2CCN(CCCc3cccc4c3CN(C3CCC(=O)NC3=O)C4=O)CC2)s1 (stereo not shown) [Example 29, 7-(5-(5-(4-(3-(2-(2,6-dioxopiperidin-3-yl)-1-oxoisoindolin-4-yl)propyl)piperazin-1-yl)-1,3,4-thiadiazol-2-yl)-4-(isopropylamino)pyridin-2-yl)pyrrolo[1,2-b]pyridazine-3-carbonitrile] | 0.8 | 1.1 | 90 | 90 | 135 | 136
11 | CNc1cc(-c2ccc3cc(C#N)cnn23)ncc1-c1nnc(N2CCN(C(=O)C3CCN(c4cccc5c4C(=O)N(C4CCC(=O)NC4=O)C5=O)CC3)CC2)s1 (stereo not shown) [Example 89, 7-(5-(5-(4-(1-(2-(2,6-dioxopiperidin-3-yl)-1,3-dioxoisoindolin-4-yl)piperidine-4-carbonyl)piperazin-1-yl)-1,3,4-thiadiazol-2-yl)-4-(methylamino)pyridin-2-yl)pyrrolo[1,2-b]pyridazine-3-carbonitrile] | – | 0.9 | – | – | – | > 9980
12 | CC(C)Nc1cc(-c2ccc3cc(C#N)cnn23)ncc1-c1nnc([C@H]2CC[C@H](NC(=O)CCOCCOCCOCCNc3cccc4c3C(=O)N(C3CCC(=O)NC3=O)C4=O)CC2)s1 (stereo partly shown) [Example 4, N-((1r,4r)-4-(5-(6-(3-cyanopyrrolo[1,2-b]pyridazin-7-yl)-4-(isopropylamino)pyridin-3-yl)-1,3,4-thiadiazol-2-yl)cyclohexyl)-3-(2-(2-(2-((2-(2,6-dioxopiperidin-3-yl)-1,3-dioxoisoindolin-4-yl)amino)ethoxy)ethoxy)ethoxy)propanamide] | 1.8 | 1.7 | 97 | 98 | 51.8 | 52.5
13 | CC(C)Nc1cc(-c2ccc3cc(C#N)cnn23)ncc1-c1nnc(N2CCN(CC3CCN(c4ccc5c(=O)n(C6CCC(=O)NC6=O)ccc5c4)CC3)CC2)s1 (stereo not shown) [Example 72, 7-(5-(5-(4-((1-(2-(2,6-dioxopiperidin-3-yl)-1-oxo-1,2-dihydroisoquinolin-6-yl)piperidin-4-yl)methyl)piperazin-1-yl)-1,3,4-thiadiazol-2-yl)-4-(isopropylamino)pyridin-2-yl)pyrrolo[1,2-b]pyridazine-3-carbonitrile] | – | 3.1 | – | 94 | – | 189
14 | CC(C)Nc1cc(-c2ccc3cc(C#N)cnn23)ncc1-c1nnc(N2CCN(C(=O)CCOCCOCCOCCNc3cccc4c3C(=O)N(C3CCC(=O)NC3=O)C4=O)CC2)s1 (stereo not shown) [Example 11, 7-(5-(5-(4-(3-(2-(2-(2-((2-(2,6-dioxopiperidin-3-yl)-1,3-dioxoisoindolin-4-yl)amino)ethoxy)ethoxy)ethoxy)propanoyl)piperazin-1-yl)-1,3,4-thiadiazol-2-yl)-4-(isopropylamino)pyridin-2-yl)pyrrolo[1,2-b]pyridazine-3-carbonitrile] | 1.3 | 1.3 | 104 | 104 | 128 | 128
15 | CNc1cc(-c2ccc3cc(C#N)cnn23)ncc1-c1nnc([C@H]2CC[C@H](NC(=O)CCCC(=O)N[C@H](C(=O)N3C[C@H](O)C[C@H]3C(=O)NCc3ccc(-c4scnc4C)cc3)C(C)(C)C)CC2)s1 [Example 59, N1-((1r,4S)-4-(5-(6-(3-cyanopyrrolo[1,2-b]pyridazin-7-yl)-4-(methylamino)pyridin-3-yl)-1,3,4-thiadiazol-2-yl)cyclohexyl)-N5-((S)-1-((2S,4R)-4-hydroxy-2-((4-(4-methylthiazol-5-yl)benzyl)carbamoyl)pyrrolidin-1-yl)-3,3-dimethyl-1-oxobutan-2-yl)glutaramide] | 0.93 | 0.9 | 89 | 101 | 163 | 160
